Results: article PMC12040969, “Design, synthesis, in silico studies, and apoptotic antiproliferative activity of novel thiazole-2-acetamide derivatives as tubulin polymerization inhibitors” (Frontiers in Chemistry, 2025)
Several values for one entry are separate records, joined by “and”; a condition that tells them apart may be missing. Equal values may be shown once. Read-outs that look alike come from different tables or passages of the source.

Columns and labels:
[1] = test system: tubulin; design: method as in El-Abd et al., 2022; conditions: ref El-Abd et al., 2022; read-out: Tubulin polymerization IC50; cited from earlier work
[2] = test system: breast - MCF-7; assay: Antiproliferative assay (MTT) MCF-7; conditions: for IC50: read-out: Antiproliferative activity IC50 ± SEM (µM) MCF-7, MCF-7, MTT
[3] = test system: Caspase-3 in MDAMB-231 cancer cell line; assay: Caspase-3 activation assay; format: cell-based, human; conditions: MDAMB-231 cells; for Caspase-3 Fold change: relative to untreated control
Excerpt: (§1) […]. Supplementary Appendix A provides more information.

[4] = test system: Bcl-2 in MDAMB-231 cancer cell line; assay: Bcl-2 level assay; format: cell-based, human; conditions: MDAMB-231 cells; for Bcl-2 Fold reduction: relative to untreated control
Excerpt: as §1

[5] = test system: Caspase-9 in MDAMB-231 cancer cell line; assay: Caspase-9 activation assay; format: cell-based, human; conditions: MDAMB-231 cells; for Caspase-9 Fold change: relative to untreated control
Method: […]. Compound 10o was the least efficient derivative as caspase-9 activators (0.90 ng/mL).
as §1

[6] = test system: Bax in MDAMB-231 cancer cell line; assay: Bax level assay; format: cell-based, human; conditions: MDAMB-231 cells; for Bax Fold change: relative to untreated control
Excerpt: as §1

[7] = test system: colon - HCT-116; assay: Antiproliferative assay (MTT) HCT-116; conditions: for IC50: read-out: Antiproliferative activity IC50 ± SEM (µM) HCT-116, HCT-116, MTT
[8] = test system: - MDAMB-231; assay: Antiproliferative assay (MTT) MDAMB-231
[9] = test system: pancreatic - MDAMB-231; assay: Antiproliferative assay (MTT) MDAMB-231; conditions: for IC50: read-out: Antiproliferative activity IC50 ± SEM (µM) MDAMB-231, MDAMB-231, MTT
[10] = Cell viability assay (MTT), normal cells; format: cell-based; conditions: human, MCF-10A normal mammary gland epithelial cells, four-day incubation
[11] = test system: four human cancer cell lines (HCT-116, PC-3, MCF-7, MDAMB-231); assay: Antiproliferative assay, mean of four cell lines (GI50); conditions: Homo sapiens, read-out: GI50 (average IC50)
[12] = test system: prostatic - PC-3; assay: Antiproliferative assay (MTT) PC-3; conditions: for IC50: read-out: Antiproliferative activity IC50 ± SEM (µM) PC-3, PC-3, MTT
[13] = test system: tubulin; assay: Tubulin polymerization inhibition assay (Cytoskeleton kit);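 for all read-outs here: Cell-free tubulin polymerization read by fluorescent reporter enhancement over a 30 min reaction, with the compound-free kit control taken as 100% activity and inhibition relative to it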; conditions: for Tub %inh / Tub. enzyme inhibition assay %inhibition: 30 min; for Tub %inh: YB-EGY run; for Tub K.Activity: EC = 120, YB-EGY run; for IC50: read-out: Tubulin inhibition IC50 ± SEM, triplicate for each tested concentration; for Tub. enzyme inhibition assay %inhibition: codes 522-537 run; for Tub. enzyme inhibition assay K. Activity: control = 120, codes 522-537 run

In the case of `COc1ccc(/C=C/C(=O)c2sc(SCC(=O)Nc3nc(-c4ccc(C)cc4)cs3)nc2C)cc1` [Compound 10o, (E)-2-((5-(3-(4-methoxyphenyl)acryloyl)-4-methylthiazol-2-yl)thio)-N-(4-(p-tolyl)thiazol-2-yl)acetamide], the “Average of Relative viability of cells (%)” value ([2]; MCF-7, 1.56 µM) is reported as 73.4%, the “Average of Relative viability of cells (%)” value ([2]; MCF-7, 3.125 µM) is reported as 61.6% and the “Average of Relative viability of cells (%)” value ([2]; MCF-7, 6.25 µM) is reported as 45.1%. For the same compound, the “Average of Relative viability of cells (%)” value ([2]; MCF-7, 12.5 µM) was 29.7%, the “Average of Relative viability of cells (%)” value ([2]; MCF-7, 25 µM) was 20.3% and the “Average of Relative viability of cells (%)” value ([2]; MCF-7, 50 µM) was 11.9%. For the same compound, the “Average of Relative viability of cells (%)” value ([2]; MCF-7, 100 µM) was 7.2%, the IC50 [2] was 5 ± 0.4 µM and the “Caspase-3 Conc” value [3] was 605 ± 5 pg/mL. For the same compound, the “Caspase-3 Fold change” value [3] was 9 fold, the “Bcl-2 Conc” value [4] was 1.05 ng/mL and the “Bcl-2 Fold reduction” value [4] was 5 fold. The “Caspase-9 Conc” value [5] was 0.90 ng/mL and 0.90 ± 0.10 ng/mL, the “Caspase-9 Fold change” value [5] was 9 fold and the “Bax Conc” value [6] was 285 pg/mL and 285 ± 7 pg/mL. For the same compound, the “Bax Fold change” value [6] was 35 fold, the “Average of Relative viability of cells (%)” value ([7]; HCT-116, 1.56 µM) was 89.1% and the “Average of Relative viability of cells (%)” value ([7]; HCT-116, 3.125 µM) was 66.5%. The “Average of Relative viability of cells (%)” value ([7]; HCT-116, 6.25 µM) was 51.6%, the “Average of Relative viability of cells (%)” value ([7]; HCT-116, 12.5 µM) was 24.5% and the “Average of Relative viability of cells (%)” value ([7]; HCT-116, 25 µM) was 22.7%. For the same compound, the “Average of Relative viability of cells (%)” value ([7]; HCT-116, 50 µM) was 15.2%, the “Average of Relative viability of cells (%)” value ([7]; HCT-116, 100 µM) was 7.8% and the IC50 [7] was 6 ± 0.4 µM. For the same compound, the “Average of Relative viability of cells (%)” value ([8]; MDAMB-231, 1.56 µM) was 61.2%, the “Average of Relative viability of cells (%)” value ([8]; MDAMB-231, 3.125 µM) was 47.1% and the “Average of Relative viability of cells (%)” value ([8]; MDAMB-231, 6.25 µM) was 37.3%. The “Average of Relative viability of cells (%)” value ([8]; MDAMB-231, 12.5 µM) was 26.7%, the “Average of Relative viability of cells (%)” value ([8]; MDAMB-231, 25 µM) was 17.6% and the “Average of Relative viability of cells (%)” value ([8]; MDAMB-231, 50 µM) was 10.2%. The “Average of Relative viability of cells (%)” value ([8]; MDAMB-231, 100 µM) was 4.5%, the “More potency than sorafenib, MDAMB-231” value ([9]; MDAMB-231 cancer cell line) was 2.7 fold and the IC50 [9] was 3 ± 0.1 µM. For the same compound, the viability at 96 h, 50 µM [10] was 90%, the IC50 [11] was 7 µM and the “Average of Relative viability of cells (%)” value ([12]; PC-3, 1.56 µM) was 99.3%. The “Average of Relative viability of cells (%)” value ([12]; PC-3, 3.125 µM) was 87.4%, the “Average of Relative viability of cells (%)” value ([12]; PC-3, 6.25 µM) was 61.1% and the “Average of Relative viability of cells (%)” value ([12]; PC-3, 12.5 µM) was 48.2%. For the same compound, the “Average of Relative viability of cells (%)” value ([12]; PC-3, 25 µM) was 31.6%, the “Average of Relative viability of cells (%)” value ([12]; PC-3, 50 µM) was 23.7% and the “Average of Relative viability of cells (%)” value ([12]; PC-3, 100 µM) was 14.3%. For the same compound, the IC50 [12] was 13 ± 1 µM, the Tub %inh ([13]; conc 0.1 (unit not given)) was 16% and the “Tub K.Activity” value ([13]; conc 0.1 (unit not given)) was 100.77. For the same compound, the Tub %inh ([13]; conc 1 (unit not given)) was 34%, the “Tub K.Activity” value ([13]; conc 1 (unit not given)) was 79.173 and the Tub %inh ([13]; conc 10 (unit not given)) was 54.8%. The “Tub K.Activity” value ([13]; conc 10 (unit not given)) was 54.254, the Tub %inh ([13]; conc 50 (unit not given)) was 76.2% and the “Tub K.Activity” value ([13]; conc 50 (unit not given)) was 28.504. The Tub %inh ([13]; conc 100 (unit not given)) was 90.9%, the “Tub K.Activity” value ([13]; conc 100 (unit not given)) was 10.964 and the IC50 [13] was 3.62 ± 0.11 µM.

With `Cc1ccc(/C=C/C(=O)c2sc(SCC(=O)Nc3nccs3)nc2C)cc1` [Compound 13d, (E)-2-((4-methyl-5-(3-(p-tolyl)acryloyl)thiazol-2-yl)thio)-N-(thiazol-2-yl)acetamide] the “Average of Relative viability of cells (%)” value ([2]; MCF-7, 1.56 µM) was 88.6%, the “Average of Relative viability of cells (%)” value ([2]; MCF-7, 3.125 µM) was 71.2% and the “Average of Relative viability of cells (%)” value ([2]; MCF-7, 6.25 µM) was 45.2%. For the same compound, the “Average of Relative viability of cells (%)” value ([2]; MCF-7, 12.5 µM) was 32.4%, the “Average of Relative viability of cells (%)” value ([2]; MCF-7, 25 µM) was 24.5% and the “Average of Relative viability of cells (%)” value ([2]; MCF-7, 50 µM) was 17.1%. The “Average of Relative viability of cells (%)” value ([2]; MCF-7, 100 µM) was 8.3%, the IC50 [2] was 7 ± 0.4 µM and the “Caspase-3 Conc” value [3] was 690 ± 5 pg/mL. The “Caspase-3 Fold change” value [3] was 11 fold, the “Caspase-3 Fold change” value ([3]; listed as 13g) was ~10 fold and the “Bcl-2 Conc” value [4] was 0.80 ng/mL. For the same compound, the “Bcl-2 Fold reduction” value [4] was 6 fold, the “Caspase-9 Conc” value [5] was 1.50 ng/mL and 1.50 ± 0.10 ng/mL and the “Caspase-9 Fold change” value [5] was 15 fold. For the same compound, the “Bax Conc” value [6] was 320 pg/mL and 320 ± 8 pg/mL, the “Bax Fold change” value [6] was 40 fold and the “Average of Relative viability of cells (%)” value ([7]; HCT-116, 1.56 µM) was 90.6%. The “Average of Relative viability of cells (%)” value ([7]; HCT-116, 3.125 µM) was 69.8%, the “Average of Relative viability of cells (%)” value ([7]; HCT-116, 6.25 µM) was 63.9% and the “Average of Relative viability of cells (%)” value ([7]; HCT-116, 12.5 µM) was 32.7%. The “Average of Relative viability of cells (%)” value ([7]; HCT-116, 25 µM) was 26.5%, the “Average of Relative viability of cells (%)” value ([7]; HCT-116, 50 µM) was 17.4% and the “Average of Relative viability of cells (%)” value ([7]; HCT-116, 100 µM) was 9.2%. The IC50 [7] was 9 ± 0.9 µM, the “Average of Relative viability of cells (%)” value ([8]; MDAMB-231, 1.56 µM) was 71.2% and the “Average of Relative viability of cells (%)” value ([8]; MDAMB-231, 3.125 µM) was 57.9%. For the same compound, the “Average of Relative viability of cells (%)” value ([8]; MDAMB-231, 6.25 µM) was 45.6%, the “Average of Relative viability of cells (%)” value ([8]; MDAMB-231, 12.5 µM) was 35.2% and the “Average of Relative viability of cells (%)” value ([8]; MDAMB-231, 25 µM) was 15.6%. The “Average of Relative viability of cells (%)” value ([8]; MDAMB-231, 50 µM) was 11.3%, the “Average of Relative viability of cells (%)” value ([8]; MDAMB-231, 100 µM) was 7.5% and the IC50 [9] was 5 ± 0.3 µM. For the same compound, the viability at 96 h, 50 µM [10] was 90%, the IC50 [11] was 8 µM and the “Average of Relative viability of cells (%)” value ([12]; PC-3, 1.56 µM) was 97.1%. For the same compound, the “Average of Relative viability of cells (%)” value ([12]; PC-3, 3.125 µM) was 83.3%, the “Average of Relative viability of cells (%)” value ([12]; PC-3, 6.25 µM) was 57.8% and the “Average of Relative viability of cells (%)” value ([12]; PC-3, 12.5 µM) was 35.6%. The “Average of Relative viability of cells (%)” value ([12]; PC-3, 25 µM) was 20.5%, the “Average of Relative viability of cells (%)” value ([12]; PC-3, 50 µM) was 19.4% and the “Average of Relative viability of cells (%)” value ([12]; PC-3, 100 µM) was 7.6%. The IC50 [12] was 9 ± 0.8 µM, the “Tub. enzyme inhibition assay %inhibition” value ([13]; conc 0.01 (unit not given)) was 6.76% and the “Tub. enzyme inhibition assay K. Activity” value ([13]; conc 0.01 (unit not given)) was 111.89. For the same compound, the “Tub. enzyme inhibition assay %inhibition” value ([13]; conc 0.1 (unit not given)) was 21%, the “Tub. enzyme inhibition assay K. Activity” value ([13]; conc 0.1 (unit not given)) was 94.779 and the “Tub. enzyme inhibition assay %inhibition” value ([13]; conc 1 (unit not given)) was 47.4%. For the same compound, the “Tub. enzyme inhibition assay K. Activity” value ([13]; conc 1 (unit not given)) was 63.07, the “Tub. enzyme inhibition assay %inhibition” value ([13]; conc 10 (unit not given)) was 68.5% and the “Tub. enzyme inhibition assay K. Activity” value ([13]; conc 10 (unit not given)) was 37.815. The “Tub. enzyme inhibition assay %inhibition” value ([13]; conc 100 (unit not given)) was 87%, the “Tub. enzyme inhibition assay K. Activity” value ([13]; conc 100 (unit not given)) was 15.546 and the IC50 [13] was 3.68 ± 0.14 µM. For the same compound, the “Tub. (IC50) IC50±SD” value ([13]; supplement raw data, lab codes) was 1.53 ± 0.06 µg/mL.

In the case of `COc1cc(-c2csc(NC(=O)CNc3ccc([N+](=O)[O-])cc3)n2)cc(OC)c1OC` [IV], the IC50 [1] is listed as 2 ± 0.12 µM.
